Reference: article PMC10385850, “Modified Hederagenin Derivatives Demonstrate Ex Vivo Anthelmintic Activity against Fasciola hepatica” (Pharmaceutics, 2023)
Entries after “also recorded” stand apart in the source; their conditions may differ.

Tested on: F. hepatica newly excysted juveniles (NEJs), Italian strain
Experiment: Ex vivo screen against newly excysted juveniles (NEJs), phenotype and motility scoring
Type: cell-based, Fasciola hepatica
Conditions: 10 µM; for Average motility of 25 NEJs with 95% CI, 24 hours / Average motility of 25 NEJs with 95% CI, 48 hours / Average motility of 25 NEJs with 95% CI, 72 hours: motility score 1 good/normal to 5 no movement; for Average phenotype of 25 NEJs with 95% CI, 24 hours / Average phenotype of 25 NEJs with 95% CI, 48 hours / Average phenotype of 25 NEJs with 95% CI, 72 hours: ultrastructure score 1 normal to 6 dead or dissolved; for Activity against NEJs (first screen), in words: 72 h co-culture
Method: […] The NEJs were excysted from metacercariae and assayed at 10 μM (in 0.1% DMSO) final concentration alongside negative (0.1% DMSO) and positive (10 μM TCBZ, in 0.1% DMSO) controls as previously described. The MC and IVL compound series were screened separately.
The motility (1—good/normal; 2—moderate; 3—low; 4—very little; 5—no movement) and phenotypic (ultrastructural changes) scores were noted according to a previously described scoring matrix (Figure S1 and Table S2).

For `CCCCCCCCCCCCCCCC(=O)OC[C@]12CCC(C)(C)CC1C1=CCC3[C@@]4(C)CCC5OC(C)(C)OC[C@@]5(C)C4CC[C@@]3(C)[C@]1(C)CC2` (stereo partly drawn) [MC032, ((4aR,6aR,6bS,8aS,14bR)-2,2,4a,6a,6b,11,11,14b-Octamethyl-4a,5,6,6a,6b,7,8,9,10,11,12,12a,14,14a, 14b,15,16,16a-octadecahydro-4H-piceno[3,4-d][1,3]dioxin-8a(4bH)-yl)methyl palmitate], the “Average motility of 25 NEJs with 95% CI, 24 hours” value was 3.20 (2.6;3.7), the “Average phenotype of 25 NEJs with 95% CI, 24 hours” value was 2.52 (1.7;3.3) and the “Average motility of 25 NEJs with 95% CI, 48 hours” value was 3.12 (2.5;3.6). For the same molecule, the “Average phenotype of 25 NEJs with 95% CI, 48 hours” value was 2.64 (1.8;3.4), the “Average motility of 25 NEJs with 95% CI, 72 hours” value was 3.12 (2.5;3.7) and the “Average phenotype of 25 NEJs with 95% CI, 72 hours” value was 2.80 (2;3.5).

With `CC1(C)CC[C@]2(N=C=O)CC[C@]3(C)C(=CCC4[C@@]5(C)CCC6OC(C)(C)OC[C@@]6(C)C5CC[C@]43C)C2C1` (stereo partly drawn) [MC015, (4aR,6aR,6bS,8aS,14bR)-8a-Isocyanato-2,2,4a,6a,6b,11,11,14b-octamethyl-4a,4b,5,6,6a,6b,7,8,8a,9, 10,11,12,12a,14,14a,14b,15,16,16a-eicosahydro-4H-piceno[3,4-d][1,3]dioxine] the “Average motility of 25 NEJs with 95% CI, 24 hours” value was 2.56 (2;3), the “Average phenotype of 25 NEJs with 95% CI, 24 hours” value was 2.24 (1.6;2.8) and the “Average motility of 25 NEJs with 95% CI, 48 hours” value was 3.08 (2.4;3.6). The “Average phenotype of 25 NEJs with 95% CI, 48 hours” value was 2.84 (2;3.5), the “Average motility of 25 NEJs with 95% CI, 72 hours” value was 3.12 (2.4;3.7) and the “Average phenotype of 25 NEJs with 95% CI, 72 hours” value was 3.56 (2.7;4.3). The “Activity against NEJs (first screen), in words” value (“Activity against NEJs” below) was “None of the three passed the first screen”.

For `CC1(C)CC[C@]2(NC(=O)N[C@H]3C(O)O[C@H](CO)[C@@H](O)[C@@H]3O)CC[C@]3(C)C(=CCC4[C@@]5(C)CC[C@H](O)[C@@](C)(CO)C5CC[C@]43C)C2C1` (stereo partly drawn) [MC030, 1-((4aS,6aS,6bR,9R,10S,12aR)-10-Hydroxy-9-(hydroxymethyl)-2,2,6a,6b,9,12a-hexa-methyl-1,3,4,5,6,6a,6b,7,8,8a,9,10,11,12,12a,12b,13,14b-octadecahydropicen-4a(2H)-yl)-3-((3R,4R,5S,6R)-2,4,5-tri-hydroxy-6-(hydroxymethyl)tetrahydro-2H-pyran-3-yl)urea], the “Average motility of 25 NEJs with 95% CI, 24 hours” value was 3.20 (2.6;3.7), the “Average phenotype of 25 NEJs with 95% CI, 24 hours” value was 3.00 (2.2;3.7) and the “Average motility of 25 NEJs with 95% CI, 48 hours” value was 3.92 (3.5;4.2). The “Average phenotype of 25 NEJs with 95% CI, 48 hours” value was 3.60 (2.9;4.2), the “Average motility of 25 NEJs with 95% CI, 72 hours” value was 3.96 (3.4;4.4) and the “Average phenotype of 25 NEJs with 95% CI, 72 hours” value was 4.00 (3.2;4.7). The “Activity against NEJs” value was “none reached the level required; also recorded: low activity”.

For `CC1(C)CC[C@]2(NC(=O)N3CCC[C@H]3C(=O)O)CC[C@]3(C)C(=CCC4[C@@]5(C)CCC6OC(C)(C)OC[C@@]6(C)C5CC[C@]43C)C2C1` (stereo partly drawn) [MC033, (((4aR,6aR,6bS,8aS,14bR)-2,2,4a,6a,6b,11,11,14b-Octamethyl-4a,5,6,6a,6b,7,8,9,10,11,12,12a,14,14a, 14b,15,16,16a-octadecahydro-4H-piceno[3,4-d][1,3]dioxin-8a(4bH)-yl)carbam-oyl)-L-proline], the “Average motility of 25 NEJs with 95% CI, 24 hours” value was 3.80 (3.4;4.1), the “Average phenotype of 25 NEJs with 95% CI, 24 hours” value was 3.28 (2.7;3.8) and the “Average motility of 25 NEJs with 95% CI, 48 hours” value was 3.88 (3.5;4.2). For the same molecule, the “Average phenotype of 25 NEJs with 95% CI, 48 hours” value was 3.44 (2.8;4), the “Average motility of 25 NEJs with 95% CI, 72 hours” value was 3.76 (3.2;4.2) and the “Average phenotype of 25 NEJs with 95% CI, 72 hours” value was 4.04 (3.3;4.6).

`CC1(C)CC[C@]2(NC(=O)N[C@H]3C(O)O[C@H](CO)[C@@H](O)[C@@H]3O)CC[C@]3(C)C(=CCC4[C@@]5(C)CCC6OC(C)(C)OC[C@@]6(C)C5CC[C@]43C)C2C1` (stereo partly drawn) [MC028, 1-((4aR,6aR,6bS,8aS,14bR)-2,2,4a,6a,6b,11,11,14b-Octamethyl-4a,5,6,6a,6b,7,8,9,10,11, 12,12a,14,14a, 14b,15,16,16a-octadecahydro-4H-piceno[3,4-d][1,3]dioxin-8a(4bH)-yl)-3-((3R,4R,5S,6R)-2,4,5-tri-hydroxy-6-(hydroxymethyl)tetrahydro-2H-pyran-3-yl)urea] was tested, and the “Average motility of 25 NEJs with 95% CI, 24 hours” value was 2.32 (1.8;2.7), the “Average phenotype of 25 NEJs with 95% CI, 24 hours” value was 2.24 (1.6;2.8) and the “Average motility of 25 NEJs with 95% CI, 48 hours” value was 3.52 (2.9;4). The “Average phenotype of 25 NEJs with 95% CI, 48 hours” value was 2.76 (2;3.4), the “Average motility of 25 NEJs with 95% CI, 72 hours” value was 2.60 (1.9;3.2) and the “Average phenotype of 25 NEJs with 95% CI, 72 hours” value was 2.72 (2;3.4). The “Activity against NEJs” value was “none reached the level required”.

For `COC(=O)[C@@H](NC(=O)N[C@]12CCC(C)(C)CC1C1=CCC3[C@@]4(C)CCC5OC(C)(C)OC[C@@]5(C)C4CC[C@@]3(C)[C@]1(C)CC2)C(C)C` (stereo partly drawn) [MC027, Methyl (((4aR,6aR,6bS,8aS,14bR)-2,2,4a,6a,6b,11,11,14b-octamethyl-4a,5,6,6a,6b,7,8,9,10, 11,12,12a, 14,14a,14b,15,16,16a-octadecahydro-4H-piceno[3,4-d][1,3]dioxin-8a(4bH)-yl)-carbamoyl)-L-valinate], the “Average motility of 25 NEJs with 95% CI, 24 hours” value was 3.48 (2.9;3.9), the “Average phenotype of 25 NEJs with 95% CI, 24 hours” value was 3.32 (2.5;4.1) and the “Average motility of 25 NEJs with 95% CI, 48 hours” value was 4.72 (4.4;4.9). The “Average phenotype of 25 NEJs with 95% CI, 48 hours” value was 4.64 (3.9;5.3), the “Average motility of 25 NEJs with 95% CI, 72 hours” value was 4.76 (4.4;5) and the “Average phenotype of 25 NEJs with 95% CI, 72 hours” value was 5.48 (4.9;5.9).

`CCCNC(=O)N[C@]12CCC(C)(C)CC1C1=CCC3[C@@]4(C)CCC5OC(C)(C)OC[C@@]5(C)C4CC[C@@]3(C)[C@]1(C)CC2` (stereo partly drawn) [MC022, 1-((4aR,6aR,6bS,8aS,14bR)-2,2,4a,6a,6b,11,11,14b-Octamethyl-4a,5,6,6a,6b,7,8,9,10,11, 12,12a,14,14a, 14b,15,16,16a-octadecahydro-4H-piceno[3,4-d][1,3]dioxin-8a(4bH)-yl)-3-propylurea] was tested, and the “Average motility of 25 NEJs with 95% CI, 24 hours” value was 2.68 (1.9;3.4), the “Average phenotype of 25 NEJs with 95% CI, 24 hours” value was 4.60 (4.2;4.9) and the “Average motility of 25 NEJs with 95% CI, 48 hours” value was 4.12 (3.7;4.4). The “Average phenotype of 25 NEJs with 95% CI, 48 hours” value was 5.08 (4.7;5.4), the “Average motility of 25 NEJs with 95% CI, 72 hours” value was 4.96 (4.8;5) and the “Average phenotype of 25 NEJs with 95% CI, 72 hours” value was 5.88 (5.6;6.1). The “Activity against NEJs” value was “inactive against NEJs”.

In the case of `CCCCOC(=O)N[C@]12CCC(C)(C)CC1C1=CCC3[C@@]4(C)CCC5OC(C)(C)OC[C@@]5(C)C4CC[C@@]3(C)[C@]1(C)CC2` (stereo partly drawn) [MC019, Butyl ((4aR,6aR,6bS,8aS,14bR)-2,2,4a,6a,6b,11,11,14b-octamethyl-4a,5,6,6a,6b,7,8,9,10, 11,12,12a,14, 14a,14b,15,16,16a-octadecahydro-4H-piceno[3,4-d][1,3]dioxin-8a(4bH)-yl)carbamate], the “Average motility of 25 NEJs with 95% CI, 24 hours” value is reported as 2.24 (1.7;2.7), the “Average phenotype of 25 NEJs with 95% CI, 24 hours” value is reported as 2.40 (1.8;2.9) and the “Average motility of 25 NEJs with 95% CI, 48 hours” value is reported as 4.00 (3.7;4.2). For the same molecule, the “Average phenotype of 25 NEJs with 95% CI, 48 hours” value was 3.20 (2.6;3.7), the “Average motility of 25 NEJs with 95% CI, 72 hours” value was 4.36 (3.9;4.7) and the “Average phenotype of 25 NEJs with 95% CI, 72 hours” value was 3.40 (2.7;4). For the same molecule, the “Activity against NEJs” value was “inactive against NEJs”.

`CN(C[C@H](O)[C@@H](O)[C@H](O)[C@H](O)CO)C(=O)N[C@]12CCC(C)(C)CC1C1=CCC3[C@@]4(C)CC[C@@H]5OC(C)(C)OC[C@@]5(C)C4CC[C@@]3(C)[C@]1(C)CC2` (stereo partly drawn) [MC059, 1-Methyl-3-((4aR,6aR,6bS,8aS,14bR,16aS)-2,2,4a,6a,6b,11,11,14b-octamethyl-4a,5,6,6a, 6b,7,8,9,10,11, 12,12a,14,14a,14b,15,16,16a-octadecahydro-4H-piceno[3,4-d][1,3]dioxin-8a(4bH)-yl)-1-((2S,3R,4R,5R)-2,3,4,5,6-pentahydroxyhexyl)urea] was tested, and the “Average motility of 25 NEJs with 95% CI, 24 hours” value was 2.84 (2.3;3.3), the “Average phenotype of 25 NEJs with 95% CI, 24 hours” value was 2.68 (1.9;3.3) and the “Average motility of 25 NEJs with 95% CI, 48 hours” value was 3.20 (2.7;3.6). The “Average phenotype of 25 NEJs with 95% CI, 48 hours” value was 3.04 (2.3;3.7), the “Average motility of 25 NEJs with 95% CI, 72 hours” value was 3.20 (2.6;3.7) and the “Average phenotype of 25 NEJs with 95% CI, 72 hours” value was 3.88 (3.2;4.4). For the same molecule, the “Activity against NEJs” value was “none reached the level required”.

`COC(=O)[C@H](Cc1c[nH]cn1)NC(=O)N[C@]12CCC(C)(C)CC1C1=CCC3[C@@]4(C)CC[C@@H]5OC(C)(C)OC[C@@]5(C)C4CC[C@@]3(C)[C@]1(C)CC2` (stereo partly drawn) [MC048, Methyl (((4aR,6aR,6bS,8aS,14bR,16aS)-2,2,4a,6a,6b,11,11,14b-octamethyl-4a,5,6,6a,6b,7,8,9,10,11,12, 12a,14,14a,14b,15,16,16a-octadecahydro-4H-piceno[3,4-d][1,3]dioxin-8a(4bH)-yl)carbamoyl)-L-histidinate] was tested, and the “Average motility of 25 NEJs with 95% CI, 24 hours” value was 1.40 (1.2;1.5), the “Average phenotype of 25 NEJs with 95% CI, 24 hours” value was 1.44 (1.2;1.6) and the “Average motility of 25 NEJs with 95% CI, 72 hours” value was 1.96 (1.8;2). For the same molecule, the “Average phenotype of 25 NEJs with 95% CI, 72 hours” value was 1.88 (1.7;2).
